Experimental data as given in US20240317691A1, “Compounds for Modulating Epithelial 15-(S)-Lipoxygenase-2 and Methods of Use for Same” (The Regents of the University of California, priority 2021, published 2024).
Several values for one entry are separate records, joined by “and”; a condition that tells them apart may be missing. Equal entries are not always repeated. Where two headings read alike, the source gives them in different places.

What was measured:
h15-LOX-2 [1] = molecular target: T1, h15-LOX-2 (Homo sapiens (Human), UniProt O15296); experiment: Lipoxygenase UV-Vis-based IC50 assay, h15-LOX-2; settings: for inhibition at 20 µM: read-out: % Inhibition at 20 μM; for potency against h15-LOX-2, SAR statement: compared with original hits
T1 sequence (O15296 whole entry, the tested form may be a part): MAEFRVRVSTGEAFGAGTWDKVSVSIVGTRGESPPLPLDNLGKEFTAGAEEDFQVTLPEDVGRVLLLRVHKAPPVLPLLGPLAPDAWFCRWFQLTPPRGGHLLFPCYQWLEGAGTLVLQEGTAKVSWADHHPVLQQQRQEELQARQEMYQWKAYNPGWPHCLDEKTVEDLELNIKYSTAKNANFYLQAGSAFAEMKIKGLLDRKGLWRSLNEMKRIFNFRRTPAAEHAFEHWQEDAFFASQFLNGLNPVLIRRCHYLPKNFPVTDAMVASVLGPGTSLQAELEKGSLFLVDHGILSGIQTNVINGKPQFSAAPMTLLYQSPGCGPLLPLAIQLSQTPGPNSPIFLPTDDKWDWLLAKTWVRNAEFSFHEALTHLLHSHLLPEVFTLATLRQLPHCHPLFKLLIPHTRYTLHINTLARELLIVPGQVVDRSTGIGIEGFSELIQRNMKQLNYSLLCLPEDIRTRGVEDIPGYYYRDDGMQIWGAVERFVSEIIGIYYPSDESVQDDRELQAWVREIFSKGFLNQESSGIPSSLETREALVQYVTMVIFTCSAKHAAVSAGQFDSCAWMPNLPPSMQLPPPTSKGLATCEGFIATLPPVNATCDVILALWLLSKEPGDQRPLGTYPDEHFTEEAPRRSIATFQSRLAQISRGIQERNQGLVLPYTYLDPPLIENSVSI
Method: (§3) The full IC50 experiments were done with at least five different inhibitor concentrations. All reaction mixtures were 2 mL in volume and constantly stirred using a magnetic stir bar at room temperature (23° C.) with the appropriate amount of LOX isozyme [h5-LOX (˜200 nM); h12-LOX (˜50 nM); h15-LOX-1 (˜60 nM); h15-LOX-2 (˜200 nM)]. […] Reactions with h12-LOX were carried out in 25 mM HEPES (pH 8.0) 0.01% Triton X-100 and 10 μM AA. Reactions with the crude, ammonium sulfate precipitated h5-LOX were carried out in 25 mM HEPES (pH 7.3), 0.3 mM CaCl2), 0.1 mM EDTA, 0.2 mM ATP, 0.01% Triton X100 and 10 μM AA. Reactions with h15-LOX-1 and h15-LOX-2 were carried out in 25 mM HEPES buffer (pH 7.5), 0.01% Triton X-100 and 10 μM AA. […] IC50 values were obtained by determining the percent inhibition at various inhibitor concentrations and plotting against inhibitor concentration, followed by a hyperbolic saturation curve fit. The percent inhibition was calculated by comparing the enzymatic rate of the control (DMSO) to the enzymatic rate with the respective inhibitor present. The experiments used for generating the saturation curves were performed in duplicate or triplicate, depending on the quality of the data.

ovine COX-1 = ovine COX-1 (Ovis aries (Sheep), UniProt P05979); experiment: Cyclooxygenase selectivity assay, COX-1; type: biochemical; settings: estimated at 25 μM inhibitor concentration, 100 μM AA
ovine COX-1, sequence (P05979 25-600): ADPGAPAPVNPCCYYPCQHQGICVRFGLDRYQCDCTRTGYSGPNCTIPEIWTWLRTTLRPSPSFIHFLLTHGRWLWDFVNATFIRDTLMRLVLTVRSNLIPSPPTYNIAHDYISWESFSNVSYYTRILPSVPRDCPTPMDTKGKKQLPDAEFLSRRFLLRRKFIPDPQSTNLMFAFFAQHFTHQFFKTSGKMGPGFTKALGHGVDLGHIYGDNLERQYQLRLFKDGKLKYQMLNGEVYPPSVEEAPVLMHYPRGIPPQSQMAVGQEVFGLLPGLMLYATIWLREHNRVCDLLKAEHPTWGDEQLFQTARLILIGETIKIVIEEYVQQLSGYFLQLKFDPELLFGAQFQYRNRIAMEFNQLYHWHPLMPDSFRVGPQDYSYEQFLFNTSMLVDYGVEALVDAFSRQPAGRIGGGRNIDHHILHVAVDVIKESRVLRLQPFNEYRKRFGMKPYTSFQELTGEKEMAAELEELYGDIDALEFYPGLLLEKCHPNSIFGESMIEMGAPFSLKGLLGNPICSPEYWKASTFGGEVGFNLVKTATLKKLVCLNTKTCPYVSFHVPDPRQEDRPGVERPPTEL
Method: (§1) Cyclooxygenase selectivity assay was performed as previously described.^24 Approximately 3 μg of either ovine COX-1 (COX-1) or human recombinant COX-2 (COX-2) (Cayman Chemical) were added to buffer containing 0.1 M Tris-HCl buffer (pH 8.0), 5 mM EDTA, 2 mM phenol, and 1 μM hemin at 37° C. […] The reaction was then initiated by adding approximately 100 μM AA in the reaction cell, as indicated in the enzymatic protocol (Cayman Chemicals). A Hansatech DWI oxygen electrode was utilized for data collection and the consumption of oxygen was recorded.
(§2) Indomethacin and the vehicle of inhibitor (DMSO) were the positive and negative controls, respectively. The percent inhibition of the enzyme was calculated by comparing the rates of O2 consumption for experimental samples (with inhibitor) to the rates of control samples (with DMSO).

human recombinant COX-2 = human recombinant COX-2 (Homo sapiens (Human), UniProt P35354); experiment: Cyclooxygenase selectivity assay, COX-2; type: biochemical; settings: estimated at 25 μM inhibitor concentration, 100 μM AA
human recombinant COX-2, sequence (P35354 18-604): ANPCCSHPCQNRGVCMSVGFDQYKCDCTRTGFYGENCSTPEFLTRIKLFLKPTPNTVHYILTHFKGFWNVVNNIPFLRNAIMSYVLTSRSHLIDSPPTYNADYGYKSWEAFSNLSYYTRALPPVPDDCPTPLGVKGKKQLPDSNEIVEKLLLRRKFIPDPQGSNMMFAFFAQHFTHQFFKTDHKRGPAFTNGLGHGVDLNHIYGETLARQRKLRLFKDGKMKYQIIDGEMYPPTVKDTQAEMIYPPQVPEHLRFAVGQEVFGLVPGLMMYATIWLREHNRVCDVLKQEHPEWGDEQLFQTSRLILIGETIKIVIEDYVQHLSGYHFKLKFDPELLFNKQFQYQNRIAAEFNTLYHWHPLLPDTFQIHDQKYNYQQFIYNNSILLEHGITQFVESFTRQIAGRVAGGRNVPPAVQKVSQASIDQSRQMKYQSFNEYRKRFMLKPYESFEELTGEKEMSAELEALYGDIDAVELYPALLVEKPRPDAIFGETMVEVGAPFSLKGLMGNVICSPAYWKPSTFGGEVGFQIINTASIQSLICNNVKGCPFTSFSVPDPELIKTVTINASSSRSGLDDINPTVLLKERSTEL
Method: as §1, §2

h15-LOX-2 [2] = molecular target: T1, h15-LOX-2; experiment: Pseudo-peroxidase activity assay (redox); type: biochemical; settings: 20 μM inhibitor, degradation of 13-HpODE at 234 nm; more than 25% degradation indicates redox activity
Method: 13-HpODE was used as the oxidant and BWb70c as the positive control. […] The reaction mixtures were constantly stirred at 23° C. […] The negative controls used were: enzyme alone with the product, enzyme alone with inhibitor, as well as inhibitor alone with the product. These formed a baseline for the assay, reflecting non-pseudo-peroxidase dependent hydroperoxide product decomposition. To rule out the auto-inactivation of the enzyme from pseudo-peroxidase cycling, the h15-LOX-2 residual activity was determined by the addition of 20 μM AA at the end of each reaction.

h15-LOX-2 [3] = molecular target: T1, h15-LOX-2; experiment: Steady-state inhibition kinetics of h15-LOX-2; type: biochemical
Method: Reactions were initiated by adding h15-LOX-2 to a constantly stirring 2 mL reaction mixture containing 0.7 μM-20 μM AA in 25 mM HEPES buffer (pH 7.5), in the presence of 0.01% Triton X-100. Kinetic data were obtained by recording initial enzymatic rates, at varied inhibitor concentrations, and subsequently fitting the data to the Henri-Michaelis-Menten equation using KaleidaGraph (Synergy) to determine Vmax (μmol/min) and Km (μM). The primary data were then plotted in Dixon format using Microsoft Excel by graphing 1/v vs. [I] μM at the chosen substrate concentrations. From the Dixon plots, the slope at each substrate concentration was extracted and plotted against 1/[S] μM to produce the Dixon replots. The Kic equilibrium constant of dissociation was calculated by dividing Km/Vmax by the slope of the replot. To obtain Kiu, 1/Vmax was divided by the y-intercept of the replot. Kic and Kiu are defined as the equilibrium constant of dissociation from the catalytic and secondary sites, respectively.

h15-LOX-2 [4] = molecular target: T1, h15-LOX-2; experiment: Inhibitors as substrates of h15-LOX-2 (UV-Vis and RP-HPLC); type: biochemical; settings: 20 μM inhibitor, absence of AA
Method: All buffer conditions and the determination of each rate are identical to the UV-Vis assay as described above. 20 μM of each inhibitor was reacted with h15-LOX-2 in 2 mL reaction mixtures in the absence of AA. Controls included DMSO (vehicle), 10 μM AA, and enzyme. All reactions were conducted on a Perkin Elmer Lambda 40 UV/Vis spectrophotometer. […] Each reaction mixture was subsequently extracted and analyzed via RP-HPLC using a Higgins HAIsiL analytical column. […] Retention times and absorbance spectra of each of the reactions were compared to spectra of the controls.

[5] = molecular target: h15-LOX-2 expressed in HEK293T cells (Homo sapiens (Human), UniProt O15296); experiment: Inhibition of h15-LOX-2 in HEK293T cells (15-HETE production); type: cell-based; settings: h15-LOX-2/HEK293T cells, exogenous AA, triplicate
h15-LOX-2 expressed in HEK293T cells, sequence (O15296 whole entry): as the sequence (O15296 whole entry, the tested form may be a part) above
Method: HEK293T cells over-expressing h15-LOX-2 were grown in MEM (Gibco) with 10% FBS (Gibco), 2 mM glutamine (Sigma), 100U/mL of penicillin/streptomycin (Gibco) and 640 μg/ml G418 sulfate (Fisher) as a selection agent. Cells were harvested at 90% confluence with trypsin-EDTA (Gibco) and washed once with MEM with 10% FBS. Cells were then washed with 0.1% glucose (Fisher) in PBS (Gibco). Cells were then diluted in 0.1% glucose in PBS to a concentration of 1 million cells/mL. Cells were treated with DMSO (0.2%) or inhibitor in DMSO and incubated at 37° C. for 20 min. Cells were then stimulated with 100 uM CaCl2) (Sigma), 5 μM Ca Ionophore A23187 (Sigma), and 1 μM arachidonic acid (NuCheck) for 10 min at 37° C. Cells were then acidified to 40 uM HCl and snap-frozen in liquid nitrogen.

h5-LOX = h5-LOX (Homo sapiens (Human), UniProt P09917); experiment: Lipoxygenase UV-Vis-based assay, h5-LOX selectivity
h5-LOX, sequence (P09917 whole entry): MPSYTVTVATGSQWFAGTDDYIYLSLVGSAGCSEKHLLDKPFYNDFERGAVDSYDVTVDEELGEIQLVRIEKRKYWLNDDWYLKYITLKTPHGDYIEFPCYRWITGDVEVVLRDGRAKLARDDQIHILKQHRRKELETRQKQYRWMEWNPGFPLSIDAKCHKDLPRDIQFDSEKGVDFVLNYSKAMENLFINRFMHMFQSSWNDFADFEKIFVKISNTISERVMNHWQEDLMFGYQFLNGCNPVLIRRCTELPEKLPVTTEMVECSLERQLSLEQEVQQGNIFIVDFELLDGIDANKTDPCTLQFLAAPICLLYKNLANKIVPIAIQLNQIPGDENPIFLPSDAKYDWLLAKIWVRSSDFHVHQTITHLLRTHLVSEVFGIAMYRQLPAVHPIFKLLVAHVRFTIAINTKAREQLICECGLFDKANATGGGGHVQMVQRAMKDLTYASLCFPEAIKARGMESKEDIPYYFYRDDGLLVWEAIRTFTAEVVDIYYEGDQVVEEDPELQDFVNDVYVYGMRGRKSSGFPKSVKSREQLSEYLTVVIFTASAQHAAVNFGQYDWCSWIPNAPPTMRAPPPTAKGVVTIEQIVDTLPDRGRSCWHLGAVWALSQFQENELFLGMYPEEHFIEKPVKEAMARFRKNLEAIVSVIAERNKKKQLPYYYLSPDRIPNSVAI
Method: as §3

h12-LOX = h12-LOX (Homo sapiens (Human), UniProt P18054); experiment: Lipoxygenase UV-Vis-based assay, h12-LOX selectivity
h12-LOX, sequence (P18054 whole entry): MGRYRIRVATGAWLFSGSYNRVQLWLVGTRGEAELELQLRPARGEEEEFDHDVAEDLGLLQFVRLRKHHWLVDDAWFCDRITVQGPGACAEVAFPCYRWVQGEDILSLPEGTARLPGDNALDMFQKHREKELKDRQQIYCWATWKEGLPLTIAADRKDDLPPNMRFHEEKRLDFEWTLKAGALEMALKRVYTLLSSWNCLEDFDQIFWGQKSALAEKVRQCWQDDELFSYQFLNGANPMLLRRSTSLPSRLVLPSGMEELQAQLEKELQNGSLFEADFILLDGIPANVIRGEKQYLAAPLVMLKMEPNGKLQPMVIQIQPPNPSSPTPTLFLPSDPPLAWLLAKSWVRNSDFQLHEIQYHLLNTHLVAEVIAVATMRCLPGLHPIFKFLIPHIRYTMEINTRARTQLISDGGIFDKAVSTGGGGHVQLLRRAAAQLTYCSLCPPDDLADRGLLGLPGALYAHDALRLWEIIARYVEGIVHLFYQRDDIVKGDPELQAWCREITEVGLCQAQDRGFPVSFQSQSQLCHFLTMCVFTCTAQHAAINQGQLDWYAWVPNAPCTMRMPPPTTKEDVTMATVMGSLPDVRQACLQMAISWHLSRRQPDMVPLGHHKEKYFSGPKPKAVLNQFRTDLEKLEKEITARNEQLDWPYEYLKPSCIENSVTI
Method: as §3

h15-LOX-1 = h15-LOX-1 (Homo sapiens (Human), UniProt P16050); experiment: Lipoxygenase UV-Vis-based assay, h15-LOX-1 selectivity
h15-LOX-1, sequence (P16050 whole entry): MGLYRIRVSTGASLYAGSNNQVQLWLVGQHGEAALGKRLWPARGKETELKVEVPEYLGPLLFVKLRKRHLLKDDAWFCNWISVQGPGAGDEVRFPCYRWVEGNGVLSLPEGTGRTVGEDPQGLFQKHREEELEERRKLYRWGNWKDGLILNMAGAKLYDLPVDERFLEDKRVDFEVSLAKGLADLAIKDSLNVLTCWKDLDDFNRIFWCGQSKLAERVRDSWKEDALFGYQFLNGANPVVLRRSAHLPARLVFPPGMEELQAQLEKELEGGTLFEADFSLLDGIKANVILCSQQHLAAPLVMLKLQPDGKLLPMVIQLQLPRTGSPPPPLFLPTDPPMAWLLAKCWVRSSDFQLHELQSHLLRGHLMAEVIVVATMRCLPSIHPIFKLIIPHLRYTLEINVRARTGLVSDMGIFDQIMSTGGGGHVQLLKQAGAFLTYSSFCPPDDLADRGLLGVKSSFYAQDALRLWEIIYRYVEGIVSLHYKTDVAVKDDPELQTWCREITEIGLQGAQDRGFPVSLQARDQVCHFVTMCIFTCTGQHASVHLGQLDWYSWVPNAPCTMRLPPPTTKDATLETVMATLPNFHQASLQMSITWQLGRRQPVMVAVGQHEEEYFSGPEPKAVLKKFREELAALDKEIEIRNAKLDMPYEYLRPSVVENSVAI
Method: as §3

h15-LOX-2 [6] = molecular target: T1, h15-LOX-2; experiment: Hydrogen/deuterium exchange mass spectrometry of h15-LOX-2; settings: 20 μM inhibitor
Method: Samples were incubated randomly at 10 time points (0, 10, 20, 45, 60, 180, 600, 1800, 3600, and 7200 s) at 25° C. using a water bath. For each given temperature and mutant, the time points (samples) were collected over the course of three to four days and randomized to reduce systematic error. Each sample (from a unique time point) was prepared and processed once. For the samples containing inhibitors, the inhibitor was added (20 μM final concentration) to the protein stock solution (at least one minute) prior to D2O addition. The specific inhibitor was also added to the D2O buffer at a final concentration of 20 μM prior to the exchange experiment.
Procedures from this point were conducted near 4° C. Prior to pepsin digestion, guanidine HCl (in citric acid, pH 2.4) was mixed with the samples to a final concentration of ca. 0.5 M. This solution contained DTT to the final concentration of 5 mM. […]
Deuterated, pepsin-digested samples of 15-LOX-2 were analyzed using an Agilent 1200 LC (Santa Clara, CA) that was connected in-line with the LTQ Orbitrap XL mass spectrometer (Thermo). Mass spectral data acquired for HDX measurements were analyzed using the software, HDX WorkBench. The percent deuterium incorporation was calculated for each of these peptides, taking into account the number of amide linkages (excluding proline residues) and the calculated number of deuterons incorporated. […]

[7] = read-out: IC50 (μM) (± SD), h15-LOX-2 SAR study, 10 μM AA, 0.01% TritonX-100
[8] = read-out: IC50 (μM) (± SD (μM)), h15-LOX-2, 10 μM AA, duplicate
[9] = equilibrium constant of dissociation from the catalytic site, Dixon replot, 0.01% Triton X-100, read-out: Kic
[10] = read-out: h15-LOX-2 IC50, experimental values repeated in docking table
[11] = read-out: h15-LOX-2 IC50, full IC50 experiment, 10 μM AA, duplicate

Row | Compound | inhibition at 20 µM (h15-LOX-2 [1]) [%] | IC50 (h15-LOX-2 [1]; [7]) [µM] | other results
1 | O=C(CSc1nccn1-c1ccccc1)NO [Compound 111] | 4 | > 100 | 
2 | Cc1ccc(C(=O)CSc2nccn2-c2ccccc2)cc1 [Compound 113] | 56 | > 25 | 
3 | Cc1ccc(-n2ccnc2SCc2ccc(C(F)(F)F)cc2)cc1 [Compound 101, 1-(p-tolyl)-2-((4-(trifluoromethyl)benzyl)thio)-1H-imidazole] | 97 | 0.27 | 
4 | O=C(CSc1nccn1-c1ccccc1)c1ccc(Cl)cc1 [Compound 114] | 62 | > 25 | 
5 | Cc1cccc(-n2ccnc2SCC(=O)Nc2ccccc2C(F)(F)F)c1 [Compound 126] | 4 | > 100 | 
6 | Cc1ccc(-n2ccnc2SCC(=O)O)cc1C [Compound 124] | 14 | > 100 | 
7 | Cc1cc(C)cc(NC(=O)CSc2nccn2-c2ccccc2)c1 [Compound 116] | 0 | > 100 | 
8 | CSc1ccc(CSc2nccn2-c2ccccc2)cc1 [Compound 103, 2-((4-(methylthio)benzyl)thio)-1-phenyl-1H-imidazole] | 84 | 2.3 | IC50 (h15-LOX-2 [1]; [8]): 2.3 µM
9 | N#Cc1cc(CSc2nccn2-c2ccccc2)ccc1F [Compound 104, 2-fluoro-5-(((1-phenyl-1H-imidazol-2-yl)thio)methyl)benzonitrile] | 23 | > 100 | potency against h15-LOX-2, SAR statement (h15-LOX-2 [1]): drastically decreased the potency
10 | CCc1ccc(CSc2nccn2-c2ccccc2)cc1 [Compound 107] | 98 | 0.87 | IC50 (ovine COX-1): > 100 µM; IC50 (human recombinant COX-2): > 100 µM; Redox (h15-LOX-2 [2]): No; Ki (h15-LOX-2 [3]; [9]): 0.9 µM; Ki (h15-LOX-2 [3]; equilibrium constant of dissociation from the secondary site, Dixon replot, 0.01% Triton X-100, read-out: Kiu): 3.4 µM; substrate activity with h15-LOX-2 (h15-LOX-2 [4]): not substrates; EC50 [5]: ~1 µM and 1.3 µM; IC50 (h15-LOX-2 [1]; [8]): 0.87 µM; IC50 (h15-LOX-2 [1]; [10]): 0.87 µM; IC50 (h15-LOX-2 [1]; [11]): 0.87 µM; IC50 (h5-LOX): > 100 µM; IC50 (h12-LOX): > 100 µM; IC50 (h15-LOX-1): > 50 µM
11 | O=C(CSc1nccn1-c1ccccc1)c1ccc(Br)cc1 [Compound 115] | 51 | > 25 | 
12 | Cc1ccc(NC(=O)CSc2nccn2-c2ccccc2)cc1 [Compound 118] | 18 | > 50 | 
13 | FC(F)(F)c1ccc(CSc2nccn2-c2ccccc2)cc1 [Compound 105] | 100 | 0.34 | IC50 (ovine COX-1): > 100 µM; IC50 (human recombinant COX-2): > 100 µM; Redox (h15-LOX-2 [2]): No; Ki (h15-LOX-2 [3]; Dixon replot of slope versus [Inhibitor], unit given as M, read-out: Kic (FIG. 2 legend)): 0.8 µM; Ki (h15-LOX-2 [3]; [9]): 0.7 µM; substrate activity with h15-LOX-2 (h15-LOX-2 [4]): not substrates; EC50 [5]: ~1 µM and 0.75 µM; average HDX rate constants of peptides 173-184 and 184-191 in presence of inhibitor (h15-LOX-2 [6]; bi-exponential fits): 2—and 4-times slower; reduction in exchange of h15-LOX-2 peptides 173-184 and 184-191 (h15-LOX-2 [6]; short time scales (<10 min), 25° C.): ≤ 20%; enhanced inhibition over inhibitor 536924 (h15-LOX-2 [1]; ratio of h15-LOX-2 IC50 values): ~10 fold; IC50 (h15-LOX-2 [1]; [8]): 0.34 µM; IC50 (h15-LOX-2 [1]; [10]): 0.34 µM; IC50 (h15-LOX-2 [1]; [11]): 0.34 µM; IC50 (h5-LOX): > 100 µM; IC50 (h12-LOX): > 100 µM; IC50 (h15-LOX-1): > 50 µM
14 | O=C(CSc1nccn1-c1ccccc1)NCc1ccc(F)cc1 [Compound 117] | 8 | > 100 | 
15 | CC(C)c1ccc(-n2ccnc2SCC(=O)O)cc1 [Compound 123] | 13 | > 100 | 
16 | Cc1ccccc1CSc1nccn1-c1ccccc1 [Compound 108] | 31 | > 50 | potency against h15-LOX-2, SAR statement (h15-LOX-2 [1]): drastically decreased the potency
17 | Cc1ccc(-n2ccnc2SCC(=O)O)c(C)c1 [Compound 125] | 16 | > 50 | 
18 | Cc1ccccc1-n1ccnc1SCC(=O)O [Compound 122] | 8 | > 100 | 
19 | Cc1ccc(C)c(-n2ccnc2SCC(=O)O)c1 [Compound 119] | 4 | > 100 | 
20 | Cc1cccc(-n2ccnc2SCC(=O)Nc2cc(C(F)(F)F)ccc2Cl)c1 [Compound 127] | 13 | > 100 | 
21 | Cc1cc(C)cc(-n2ccnc2SCC(=O)O)c1 [Compound 120] | 7 | > 100 | 
22 | Clc1cccc(CSc2nccn2-c2ccccc2)c1 [Compound 109] | 39 | > 50 | potency against h15-LOX-2, SAR statement (h15-LOX-2 [1]): drastically decreased the potency
23 | O=C(O)CCCSc1nccn1-c1ccccc1 [Compound 112] | 8 | > 100 | 
24 | Fc1ccc(CSc2nccn2-c2ccccc2)cc1 [Compound 102, 2-((4-fluorobenzyl)thio)-1-phenyl-1H-imidazole] | 35 | > 100 | IC50 (h15-LOX-2 [1]; [8]): > 100 µM
25 | Cc1cccc(-n2ccnc2SCC(=O)O)c1C [Compound 121] | 7 | > 100 | 
26 | c1ccc(CCSc2nccn2-c2ccccc2)cc1 [Compound 110] | 68 | > 25 | potency against h15-LOX-2, SAR statement (h15-LOX-2 [1]): drastically decreased the potency
27 | Brc1ccc(CSc2nccn2-c2ccccc2)cc1 [Compound 106] |  |  | IC50 (ovine COX-1): > 100 µM; IC50 (human recombinant COX-2): > 100 µM; IC50 (h5-LOX): > 100 µM; IC50 (h12-LOX): > 100 µM; IC50 (h15-LOX-1): > 50 µM
